Data: article PMC6272674, “Selected Compounds Structurally Related to Acyclic Sesquiterpenoids and Their Antibacterial and Cytotoxic Activity” (Molecules, 2015)
Converted amounts (≈) assume the structure as drawn.

Key:
[1] = test system: Escherichia coli ATCC 25922; assay: Micro-dilution broth MIC, Escherichia coli; type: cell-based; settings: ATCC25922, 24 h, 37 °C, read-out: Minimum Inhibitory Concentrations MIC
Procedure: (§1) The standard strains, Gram-positive: Staphylococcus aureus ATCC […], Enterococcus faecalis Van B ATCC 51299 and Enterococcus faecium VA sensitive ATCC 35667, and Gram-negative: Escherichia coli ATCC 25922, Klebsiella pneumoniae ATCC 700603 and Acinetobacter baumannii ATCC 19606, came from a collection of the Environmental Biology Department, Medical University of Łódź. The standard strains were cultivated in Columbia Agar Medium and incubated at 37 °C for 24 h in aerobic conditions.
(§2) The antibacterial activity of the racemates and E/Z-mixtures was investigated using the micro‑dilution broth method. The compounds were diluted in ethanol. This stock solution was mixed with 100 µL of Mueller-Hinton broth to obtain concentrations from 10 µg/mL to 80 µg/mL. The mixtures were then transferred to 96-well microtiter plates. The microbial suspension was standardised to a cell density of 1.5 × 10^8 CFU, which was equal to an optical density of 0.5 on the Mc Farland scale by a bio-Merieux densitometer; one well was filled with broth only to act as a control for strain growth.

[2] = test system: Acinetobacter baumannii ATCC 19606; assay: Micro-dilution broth MIC, Acinetobacter baumannii; type: cell-based; settings: ATCC19606, 24 h, 37 °C, read-out: Minimum Inhibitory Concentrations MIC
Procedure: as §1, §2

[3] = test system: Klebsiella pneumoniae ATCC 700603; assay: Micro-dilution broth MIC, Klebsiella pneumoniae; type: cell-based; settings: ATCC700603, 24 h, 37 °C, read-out: Minimum Inhibitory Concentrations MIC
Procedure: as §1, §2

[4] = test system: Enterococcus faecium ATCC 35667; assay: Micro-dilution broth MIC, Enterococcus faecium; type: cell-based; settings: ATCC35667, 24 h, 37 °C, read-out: Minimum Inhibitory Concentrations MIC
Procedure: as §1, §2

[5] = test system: Enterococcus faecalis ATCC 51299; assay: Micro-dilution broth MIC, Enterococcus faecalis; type: cell-based; settings: ATCC51299, 24 h, 37 °C, read-out: Minimum Inhibitory Concentrations MIC
Procedure: as §1, §2

[6] = test system: Staphylococcus aureus ATCC 43300; assay: Micro-dilution broth MIC, Staphylococcus aureus; type: cell-based; settings: ATCC43300, 24 h, 37 °C, read-out: Minimum Inhibitory Concentrations MIC
Procedure: as §1, §2

[7] = test system: Promyelocytic Leukaemia HL-60; assay: MTT viability, HL-60; type: cell-based, human; settings: Homo sapiens, HL-60, 24 h, HL-60, MTT, range 10–1000 µM, read-out: half maximal inhibitory concentration (IC50), interpolated
Procedure: (§3) Cell lines and in vitro culture conditions: The human promyelocytic leukaemia cell line HL-60 was obtained from the Centre of Molecular and Macromolecular Biology in Łódź, Poland and was cultured in RPMI 1640 medium with 20% heat-inactivated fetal bovine serum (FBS). To reduce spontaneous differentiation, the cells were never allowed to exceed a concentration of 1.0 × 10^6 cells/mL. The human keratinocyte cell line HaCaT was obtained from Cell Lines Service, Germany (CLS) and cultured in DMEM medium with 10% FBS. Human colorectal adenocarcinoma HT29 and normal epithelial IEC-6 cell lines (from ATCC) were cultured in DMEM medium with 10% FBS. The human skin melanoma cell line MEWO (from CLS) was cultured in DMEM:F12 supplemented with 2 mM L-glutamine and 10% FBS. Human fibroblasts from gingiva isolated from original tissue, HFIB-G, (from Provitro) were cultured in Quantum 333 (from Immunique). The media were supplemented with 100 U/mL penicillin and 100 µg/mL streptomycin; all media components were obtained from Life Technologies. The adherent cell lines used in the studies were seeded on microplates before they exceeded 80% of confluence. Cells were cultured at 37 °C in 5% CO2 air atmosphere/95% air atmosphere.
(§4) Cytotoxic activity: The cells (the density for HL-60 was 0.5 × 10^4 cells/100 µL, otherwise it was 1 × 10^4 cells/100 µL) were plated into each well of 96-well microtiter plates and, after their attachment to the plate surface, treated with 10 µL of the indicated concentrations of compounds for 24 h. Viability was determined by MTT assay following the treatment. MTT (3-[4.5-dimethylthiazol-2-yl]-2.5-diphenyltetrazolium bromide; Sigma, St. Louis, MO, USA) solution was added to each well and incubated for another 4 h. The resulting MTT-formazan product was dissolved by the addition of lysis buffer (20% SDS and 50% DMF). The amount of formazan was determined by measuring absorbance at 570 nm with a Synergy 2 microplate reader (BioTek, Winooski, VT, USA) operated by the Gen5 program. The experiments were conducted three times with five replications. The results are expressed as an optical density ratio of the treatment to control. All data are presented as means ± SD.

[8] = MTT viability, IEC6; type: cell-based; settings: rat, IEC-6 small intestine epithelial cells, 1000 µM (IC50 exceeded 1000 µM), read-out: viability ± standard deviation at 1000 µM
Procedure: as §3, §4

[9] = test system: Fibroblasts HFIG; assay: MTT viability, HFIG; type: cell-based, human; settings: Homo sapiens, Fibroblast, 24 h, range 10–1000 µM, read-out: half maximal inhibitory concentration (IC50), interpolated
Procedure: as §3, §4

[10] = test system: Keratinocytes HaCaT; assay: MTT viability, HaCaT; type: cell-based, human; settings: Homo sapiens, 24 h, range 10–1000 µM, read-out: half maximal inhibitory concentration (IC50), interpolated
Procedure: as §3, §4

[11] = MTT viability, HT29; type: cell-based, human; settings: human, HT29 colorectal adenocarcinoma cells, 1000 µM (IC50 exceeded 1000 µM), read-out: viability ± standard deviation at 1000 µM
Procedure: as §3, §4

[12] = test system: Malignant Melanoma MEWO; assay: MTT viability, MEWO; type: cell-based, human; settings: Homo sapiens, 24 h, range 10–1000 µM, read-out: half maximal inhibitory concentration (IC50), interpolated
Procedure: as §3, §4

[13] = MTT viability, HFIG; type: cell-based, human; settings: human, HFIG (HFIB-G) gingival fibroblasts, 1000 µM (IC50 exceeded 1000 µM), read-out: viability ± standard deviation at 1000 µM
Procedure: as §3, §4

[14] = MTT viability, HaCaT; type: cell-based, human; settings: human, HaCaT keratinocytes, 1000 µM (IC50 exceeded 1000 µM), read-out: viability ± standard deviation at 1000 µM
Procedure: as §3, §4

[15] = MTT viability, MEWO; type: cell-based, human; settings: human, MEWO malignant melanoma cells, 1000 µM (IC50 exceeded 1000 µM), read-out: viability ± standard deviation at 1000 µM
Procedure: as §3, §4

| Structure (SMILES) | MIC [1] [µg/mL] | MIC [2] [µg/mL] | MIC [3] [µg/mL] | MIC [4] [µg/mL] | MIC [5] [µg/mL] | MIC [6] [µg/mL] | IC50 [7] [µM] | viability at 24 h, 1000 µM [8] [%] | IC50 [9] [µM] | IC50 [10] [µM] | viability at 24 h, 1000 µM [11] [%] | IC50 [12] [µM] | viability at 24 h, 1000 µM [13] [%] | viability at 24 h, 1000 µM [14] [%] | viability at 24 h, 1000 µM [15] [%] |
| --- | --- | --- | --- | --- | --- | --- | --- | --- | --- | --- | --- | --- | --- | --- | --- |
| O=C(O)c1cn(C2CC2)c2cc(N3CCNCC3)c(F)cc2c1=O [Ciprofloxacin, reference compound] | 4 (≈ 12.1 µM) | 4 (≈ 12.1 µM) | 2 (≈ 6.04 µM) | 8 (≈ 24.1 µM) | 2 (≈ 6.04 µM) | 8 (≈ 24.1 µM) |  |  |  |  |  |  |  |  |  |
| CC(C)=CCCC(C)C(C)=CCCC(C)=CC=O (stereo not drawn) [Compound 18, 3,7,8,12-Tetramethyltrideca-2,6,11-trienal] | 52 (≈ 209 µM) | 46 (≈ 185 µM) | 46 (≈ 185 µM) | 28 (≈ 113 µM) | 22 (≈ 88.6 µM) | 18 (≈ 72.5 µM) | 502 | 79 | 690 | 800 | 98 | 630 |  |  |  |
| CC(C)=CCCC(C)/C=C/CCC(C)=CC=O (stereo not drawn) [Compound 19, (6E)-3,8,12-Trimethyltrideca-2,6,11-trienal] | 44 (≈ 188 µM) | 42 (≈ 179 µM) | 36 (≈ 154 µM) | 38 (≈ 162 µM) | 34 (≈ 145 µM) | 28 (≈ 119 µM) | 550 | 94 | 750 | 650 | 96 | 600 |  |  |  |
| CC(=CC=O)CCC=C(C)C(C)CCCC(C)C (stereo not drawn) [Compound 20, 3,7,8,12-Tetramethyltrideca-2,6-dienal] | 48 (≈ 192 µM) | 38 (≈ 152 µM) | 38 (≈ 152 µM) | 32 (≈ 128 µM) | 20 (≈ 79.9 µM) | 22 (≈ 87.9 µM) | 480 | 64 | 610 | 850 | 82 | 690 |  |  |  |
| CC(C)=CCCC(C)CC(C)=CC=O (stereo not drawn) [Compound 21, 3,5,9-Trimethyldeca-2,8-dienal] | 54 (≈ 278 µM) | 52 (≈ 268 µM) | 48 (≈ 247 µM) | 42 (≈ 216 µM) | 38 (≈ 196 µM) | 32 (≈ 165 µM) | 600 | 91 | 830 | 830 | 98 | 640 |  |  |  |
| CC(C)=CCCC(C)CCC(C)=CC=O (stereo not drawn) [Compound 22, 3,6,10-Trimethylundeca-2,9-dienal] | 44 (≈ 211 µM) | 36 (≈ 173 µM) | 36 (≈ 173 µM) | 46 (≈ 221 µM) | 24 (≈ 115 µM) | 26 (≈ 125 µM) | 600 | 76 | 740 | 880 | 93 | 700 |  |  |  |
| CC(C)=CCCC(C)CC(C)C(C)=CC=O (stereo not drawn) [Compound 23, 3,4,6,10-Tetramethylundeca-2,9-dienal] | 46 (≈ 207 µM) | 36 (≈ 162 µM) | 34 (≈ 153 µM) | 36 (≈ 162 µM) | 26 (≈ 117 µM) | 28 (≈ 126 µM) | 630 | 82 | 800 | 900 | 87 | 730 |  |  |  |
| CC(=O)OCC=C(C)CCC=C(C)C(C)CCC=C(C)C (stereo not drawn) [Compound 30, 3,7,8,12-Tetramethyltrideca-2,6,11-trien-1-yl acetate] | 30 | 24 | 24 | 18 | 24 | 30 | 289 | 86 |  | 900 | 96 | 850 | 105 |  |  |
| CC(=O)OC/C=C(\C)CCC=CC(C)CCC=C(C)C (stereo not drawn) [Compound 31, (E)-3,8,12-Trimethyltrideca-2,6,11-trien-1-yl acetate] | 26 | 18 | 22 | 20 | 20 | 24 | 350 | 94 | 850 |  | 107 | 930 |  | 98 |  |
| CC(=O)OCC=C(C)CC(C)CCC=C(C)C (stereo not drawn) [Compound 33, 3,5,9-Trimethyldeca-2,8-dien-1-yl acetate] | 26 | 22 | 18 | 16 | 18 | 26 | 400 | 95 |  |  | 110 |  | 100 | 101 | 103 |
| CC(=O)OCC=C(C)CCC(C)CCC=C(C)C (stereo not drawn) [Compound 34, 3,6,10-Trimethylundeca-2,9-dien-1-yl acetate] | 18 | 18 | 20 | 18 | 20 | 32 | 312 | 79 |  |  | 98 |  | 99 | 110 | 98 |
| CC(=O)OCC=C(C)C(C)CC(C)CCC=C(C)C (stereo not drawn) [Compound 35, 3,4,6,10-Tetramethylundec-2,9-dien-1-yl acetate] | 16 | 12 | 18 | 14 | 16 | 34 | 343 | 71 |  |  | 83 |  | 87 | 102 | 112 |
| CC(=O)OCC=C(C)CCC=C(C)CCC=C(C)C [Farnesyl acetate (5), farnesyl acetate, reference compound] | 28 | 22 | 22 | 20 | 20 | 28 | 121 | 78 |  |  | 105 | 734 | 98 | 102 |  |
| CNC(C)C1CCC(N)C(OC2C(N)CC(N)C(OC3OCC(C)(O)C(NC)C3O)C2O)O1 (stereo not drawn) [Gentamicin, reference compound] | 4 (≈ 8.38 µM) | 32 (≈ 67 µM) | 32 (≈ 67 µM) | 32 (≈ 67 µM) | > 64 | 16 (≈ 33.5 µM) |  |  |  |  |  |  |  |  |  |
